Target: ATP-dependent translocase ABCB1 (Homo sapiens, UniProt P08183)
Experiment: TP_TRANSPORTER: increase in VCR intracellular accumulation (VCR: 0.03 uM, MS-073: 3 uM) in K562/ADM cells
Type: functional, cell-based
Conditions: k562/adr

Sequence of ATP-dependent translocase ABCB1 (P08183 whole entry): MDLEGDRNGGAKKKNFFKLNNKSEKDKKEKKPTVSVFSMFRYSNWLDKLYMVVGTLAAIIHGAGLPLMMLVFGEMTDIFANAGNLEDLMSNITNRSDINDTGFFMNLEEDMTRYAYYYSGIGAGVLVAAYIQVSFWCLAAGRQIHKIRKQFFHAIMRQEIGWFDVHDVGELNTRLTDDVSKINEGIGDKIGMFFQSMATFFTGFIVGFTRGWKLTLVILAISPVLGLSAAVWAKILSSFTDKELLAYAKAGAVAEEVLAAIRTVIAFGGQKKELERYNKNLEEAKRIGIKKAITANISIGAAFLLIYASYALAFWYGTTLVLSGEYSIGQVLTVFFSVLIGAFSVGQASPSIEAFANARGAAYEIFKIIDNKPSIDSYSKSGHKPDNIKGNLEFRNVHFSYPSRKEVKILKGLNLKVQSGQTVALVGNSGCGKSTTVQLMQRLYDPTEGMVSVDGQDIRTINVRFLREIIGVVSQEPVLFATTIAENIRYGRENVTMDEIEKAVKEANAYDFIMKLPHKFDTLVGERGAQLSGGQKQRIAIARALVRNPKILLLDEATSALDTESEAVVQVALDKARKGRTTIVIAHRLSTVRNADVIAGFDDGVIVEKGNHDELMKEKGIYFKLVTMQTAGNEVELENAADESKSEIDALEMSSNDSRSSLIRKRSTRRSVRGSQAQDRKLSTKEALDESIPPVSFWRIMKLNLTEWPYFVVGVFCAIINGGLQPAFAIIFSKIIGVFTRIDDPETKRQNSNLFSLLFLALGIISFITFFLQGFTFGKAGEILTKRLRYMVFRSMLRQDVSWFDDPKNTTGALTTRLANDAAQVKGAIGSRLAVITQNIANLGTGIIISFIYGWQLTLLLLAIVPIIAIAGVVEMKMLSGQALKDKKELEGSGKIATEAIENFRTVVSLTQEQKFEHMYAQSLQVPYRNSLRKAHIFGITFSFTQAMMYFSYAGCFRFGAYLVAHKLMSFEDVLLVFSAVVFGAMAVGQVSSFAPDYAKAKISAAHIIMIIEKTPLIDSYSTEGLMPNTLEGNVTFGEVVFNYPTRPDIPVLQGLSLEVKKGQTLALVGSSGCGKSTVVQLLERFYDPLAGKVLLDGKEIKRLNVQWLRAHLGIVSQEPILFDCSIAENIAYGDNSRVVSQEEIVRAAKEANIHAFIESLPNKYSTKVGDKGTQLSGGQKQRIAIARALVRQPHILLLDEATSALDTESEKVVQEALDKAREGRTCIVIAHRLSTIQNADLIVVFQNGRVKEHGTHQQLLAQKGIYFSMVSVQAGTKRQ

OC(COc1cccc2ncccc12)CN1CCN(C2c3ccccc3CCc3ccccc32)CC1 (stereo unspecified)
Activity: inhibitor [+]
